Laboratory results: publication PMC8954523 (Pharmaceutics, 2022)

Key:
[1] = Hypothetical transfer thermodynamic functions from solvation functions; assay type: physicochemical; settings: 298.15 K; for TΔStr / ΔGtr / ΔHtr / ΔStr / ζHtr / ζTStr: hypothetical
Experimental: The impact of the specific interactions on the solvation process was estimated by analyzing the thermodynamic functions of the hypothetical transfer from n-hexane—an inert solvent interacting with the drugs only non-specifically—to water, 1-octanol, and ethanol. Besides this, the hypothetic transfer from water to 1-octanol is significant as a model of the drug penetrating through the lipophilic biological membranes. The transferring thermodynamic parameters listed in Table 4 were calculated as a difference (taking into account the sign of the thermodynamic function) between the respective functions in a solvent (1-octanol/water/ethanol) and in n-hexane and between 1-octanol and water.
The relationship between the specific and non-specific solvation thermodynamic contributions was disclosed using the εH and εS parameters calculated as follows:(20) εH=(ΔHspec/ΔHnon−spec)⋅100%where ΔHspec=ΔHtr(n−hexane→solvent)and ΔHnon−spec=ΔHsolv(n−hexane) (21) εS=(ΔSspec/ΔSnon−spec)⋅100%where ΔSspec=ΔStr(n−hexane→solvent)and ΔSnon−spec=ΔSsolv(n−hexane)

[2] = Apparent distribution coefficient, 1-octanol/water, isothermal shake-flask; assay type: physicochemical; settings: 298.15 K
Experimental: The well-known isothermal shake-flask method was applied for the determination of the apparent distribution coefficients in the 1-octanol/water ( Dappoct/w ) and n-hexane/water ( Dapphex/w ) systems. The mutually saturated solvents were prepared by mixing water and organic phases for 24 h and settling and separating from each other. The stock solutions of the drug were made from 1-octanol saturated with water for the 1-octanol/water distribution, and n-hexane saturated with water for the n-hexane/water system. An aliquot of the stock solution was placed in a glass vial together with an aliquot of the respective phase and mixed for 24 h at five temperatures, from 293.15 to 313.15 K (±0.1 K). The concentrations of the compounds were determined spectrophotometrically (Shimadzu 1800, Kyoto, Japan) in a UV region, with an accuracy of 2–4%. The reported experimental values represent the average of at least four replicate experiments.
The apparent distribution coefficients were calculated from the molar concentrations of the substance in the phases using the following equation:(10) DCorg/w=C2org/w/C2w/org where DCorg/w is the apparent distribution coefficient, C2org/w and C2w/org are the concentrations (M) of the compound after the distribution in the 1-octanol or n-hexane and water phases, respectively. The apparent distribution coefficients in the mole fraction scale ( DXorg/w ) were calculated by the equation:(11) DXorg/w=X2org/w/X2w/org where X2org/w and X2w/org are the concentrations (mole fract.) of the compound after distribution. The standard Gibbs energy of the transfer ( ΔGtr0) from water to the organic phase was calculated as follows:(12) ΔGtr0=−RT(lnDXorg/w)

## CC(O)(CS(=O)(=O)c1ccc(F)cc1)C(=O)Nc1ccc(C#N)c(C(F)(F)F)c1 (centres unmarked) [BCL, bicalutamide]
[1]; n-hexane → 1-octanol
  εH: 36.6%
  εS: 30.2%
  TΔStr: −13.9 kJ⋅mol^−1
  ΔGtr: −13.7 kJ⋅mol^−1
  ΔHtr: −27.6 kJ⋅mol^−1
  ΔStr: −46.6 J⋅mol^−1⋅K^−1
  ζHtr: 66.5%
  ζTStr: 33.5%
[1]; n-hexane → ethanol
  εS: 5.0%
  TΔStr: −2.3 kJ⋅mol^−1
  ΔGtr: −18 kJ⋅mol^−1
  ΔHtr: −20.3 kJ⋅mol^−1
  ΔStr: −7.7 J⋅mol^−1⋅K^−1
  ζHtr: 89.8%
  ζTStr: 10.2%
[1]; n-hexane → water
  εH: 16.4%
  εS: 37.4%
  TΔStr: −17.2 kJ⋅mol^−1
  ΔGtr: 4.8 kJ⋅mol^−1
  ΔHtr: −12.4 kJ⋅mol^−1
  ΔStr: −57.7 J⋅mol^−1⋅K^−1
  ζHtr: 41.9%
  ζTStr: 58.1%
[1]; water → 1-octanol
  TΔStr: 3.3 kJ⋅mol^−1
  ΔGtr: −18.5 kJ⋅mol^−1
  ΔHtr: −15.2 kJ⋅mol^−1
  ΔStr: 11.1 J⋅mol^−1⋅K^−1
  ζHtr: 82.2%
  ζTStr: 17.8%
[2]; 1-octanol/water
  experimental over calculated distribution coefficient: 3.3 fold
[2]; 1-octanol/water, read-out: logDCoct/w, experimental
  logP at 24 h: 2.82 ± 0.09
[2]; 1-octanol/water, molarity scale
  DCoct/w, experimental apparent distribution coefficient: 662.29 ± 20.22
[2]; from calculated distribution coefficients
  ∆logDcalc: 2.30
[2]; logDCoct/w − logDChex/w, experimental
  ∆logD: 2.55
[2]; ratio of molar solubilities in 1-octanol and water
  DC/calcoct/w, calculated distribution coefficient: 199.02 ± 12.00
